What all share (type): in vivo
Test [1] deals with soybean seeds. Briefly: Soybean seed germination experiment (seed soaking method). The conditions noted are these: 0.2 ppm sample solution.
For test [2], the system named is soybean seeds. The test is described as above. As for the experimental part:
(§1) Test Method: Ministerial Standard NYT 2061.1-2011, Seed Soaking Method 10 mg of each sample was weighed and put into a 10 ml volumetric flask, dissolved with DMSO, and diluted to volume after being dissolved completely. 1 ml of each diluted monomer solution was put into a 50-1000 ml volumetric flask, added with water, blended and diluted to volume so as to prepare a solution with a concentration of 2 ppm, 0.2 ppm, or 0.02 ppm. The method was substantially the same as that in Example 1 except that soybean seeds were used as the crop seeds, and the samples were crude chlorin, pyropheophorbide, chlorin f, chlorin e6, chlorin e4, purpurin-18, 15-oxymethyl rhodochlorin lactone, and 15-hydroxymethyl rhodochlorin lactone. The method was substantially the same as that in Example 2, except that the test samples were monomer chlorin e6 and control monomer chlorin e6 iron (III), both at a concentration of 0.02 ppm and the test seeds were corn, soybean, rice and wheat seeds. The preparation method of the control monomer was conducted by referring to CN102273467B.

Test [3] has as its system rice seeds. Description: Rice seed germination experiment (seed soaking method). As for the experimental part: as §1, with “Example 2” for “Example 1”, “that rice” for “that soybean”, “crop seeds.” for “crop seeds, and the samples were crude chlorin, pyropheophorbide, chlorin f, chlorin e6, chlorin e4, purpurin-18, 15-oxymethyl rhodochlorin lactone, and 15-hydroxymethyl rhodochlorin lactone.”

The test system of test [4] is wheat seeds. Description: Wheat seed germination experiment (seed soaking method). As for the experimental part: as §1, with “Example 2” for “Example 1”, “that wheat” for “that soybean”, “crop seeds.” for “crop seeds, and the samples were crude chlorin, pyropheophorbide, chlorin f, chlorin e6, chlorin e4, purpurin-18, 15-oxymethyl rhodochlorin lactone, and 15-hydroxymethyl rhodochlorin lactone.”

Test [5] relates to corn seeds. Description: Corn seed germination experiment (seed soaking method, NYT 2061.1-2011). From the text: Test Method: Ministerial Standard NYT 2061.1-2011, Seed Soaking Method
Test samples: crude chlorin, and dihydroporphin monomers including chlorin fG, chlorin e6, pheophorbide, pyropheophorbide, chlorin e4, purpurin-7, purpurin-18, chlorin p6, 15-formyl rhodochlorin, 15-oxymethyl rhodochlorin, 15-oxymethyl rhodochlorin lactone A, 15-hydroxymethyl rhodochlorin, and 15-hydroxymethyl rhodochlorin lactone B, and pure water and iron chlorin e6 (China Pesticide Registration Certificate Number: PD20190031) were used as blank and positive control.
10 mg of each sample was weighed and put into a 10 ml volumetric flask, dissolved with DMSO, and diluted to volume after being dissolved completely. 1 ml of each diluted monomer solution was put into a 50-1000 ml volumetric flask, added with water, blended and diluted to volume so as to prepare a solution with a concentration of 2 ppm, 0.2 ppm, or 0.02 ppm.
The method was substantially the same as that in Example 2, except that the test samples were monomer chlorin e6 and control monomer chlorin e6 iron (III), both at a concentration of 0.02 ppm and the test seeds were corn, soybean, rice and wheat seeds. The preparation method of the control monomer was conducted by referring to CN102273467B.

[6] abbreviates: comparison of the monomers, 0.02 ppm.

Here are results for two substances from patent US12279618B2, “Use of dihydroporphin derived from chlorophyll as plant growth regulator” (Anqing Better Bioengineering Co., Ltd, priority 2019, dated 2025).

In the case of iron chlorin e6 [reference compound], the Germination rate % result is reported as “most ideal germination effect” in test [1]; 60% in test [2] (soybean seeds, 0.02 ppm sample solution); 66% in test [2] (soybean seeds, 0.2 ppm sample solution); 56% in test [2] (soybean seeds, 2 ppm sample solution); 78% in test [3] (0.02 ppm sample solution); “best germination effect” in test [3] (0.02 ppm sample solution, listed as iron chlorin e6). The Germination rate % in test [3] (0.2 ppm sample solution) is on record as 76%; in test [3] (2 ppm sample solution), 74%; in test [3] (2 ppm sample solution, listed as iron chlorin e6), “best germination effect”; in test [4] (0.02 ppm sample solution), 90%; in test [4] (0.2 ppm sample solution), 88%; in test [4] (2 ppm sample solution) it was 86%. Further, the Germination rate % in test [5] (0.02 ppm sample solution, seed soaking) is 53%; in test [5] (0.2 ppm sample solution, seed soaking), 57%; in test [5] (2 ppm sample solution, seed soaking) it was 64%.
As to “chlorin e6 iron (III) [reference compound]”, the Germination rate % was 60% in test [2] (comparison of the monomers, soy bean seeds, 0.02 ppm); 58% in test [3] (setting [6]); 92% in test [4] (setting [6]); 46% in test [5] (setting [6]).
